{"source": "patent US9669009B2", "about": "“Rapid disperse dosage form containing levetiracetam” (APRECIA PHARMACEUTICALS COMPANY, priority 2013, dated 2017)", "key": {"[1]": {"assay": "Evaluation of antioxidants for LEV stability in raw tablet compositions (Example 6)", "experimental": "The following procedures were used to identify the preferred antioxidant(s) suitable stabilizing LEV against oxidative degradation.\nA powder blend containing the following ingredients in the amounts indicated was prepared.\nA printing fluid containing the following ingredients in the amounts indicated was prepared.\nFor example, the amount of antioxidant would be “(IIG daily limit)/2” for a 1000 mg tablet administered twice daily. It should be understood that IIG limits are periodically changed by regulatory agencies. Accordingly, the limits specified below should be considered approximations and not as absolute limits to the amount of antioxidant that can be included in a dosage form.\nThe antioxidant was mixed with 6 mL of printing fluid. That mixture was then mixed with 30 g of powder blend to form a raw tablet composition, each of which was exposed to the following conditions: Condition 1—store composition at 70 C in tightly sealed glass jar; Condition 2—store composition at 50 C in loosely covered glass jar; and Condition 3—store composition at 40 C/75% RH in open glass jar.\nThe samples were subsequently analyzed by HPLC/MS and the identity of two key degradants was determined by comparison to standards. The key degradants were levetiracetam acid and oxo-levetiracetam."}, "[2]": {"details": "accelerated (60° C.) stress: acidic, alkaline, aqueous, oxidative, thermal or photo; Shah 2012; cited from earlier work"}, "[3]": {"details": "cited from earlier work"}, "[4]": {"assay": "Oxidative degradation of LEV in 3DP dosage form, HPLC/MS", "format": "physicochemical", "details": "antioxidant absent, oxidative excipient (povidone or silica with peroxide impurity) present", "experimental": "The stability of LEV to oxidative degradation when included in a 3DP dosage form of the invention was determined by exposing finished dosage forms to heat. The formation of degradants was observed and monitored by HPLC/MS as detailed below. […] Povidone and silica, however, are important functional ingredients. Accordingly, the invention provides a stable rapidly dispersible dosage form comprising LEV, oxidative excipient, antioxidant, binder and disintegrant, wherein the matrix comprises 0.1% by wt or less of an oxidative degradant of LEV after storage for six months at 21° C. and 75% RH.\nThe following procedures were used to analyze three-dimensionally printed solid porous orodispersible matrices and in support of drug-stability studies.\nSamples were prepared by transferring approximately 380 mg of sample to a 50-mL volumetric flask with 30 mL of Diluent. The sample was sonicated for 10 minutes then filled to volume with Diluent. A portion was filtered through a 0.22 μm nylon filter, discarding the first 3-5 mL.\nMass spectrophotometry was conducted by directly infusing a sodium formate solution into the mass spectrometer through the lock spray at 100 μL/min using a syringe pump. The sodium formate peak at m/z 158.9646126 was used for accurate mass analysis. The accurate masses were used for elemental composition analysis using the MassLynx software. […]"}, "[5]": {"details": "antioxidant at half IIG daily limit in raw tablet composition, 70 C sealed, 50 C loosely covered, 40 C/75% RH open"}}, "note": "“Also recorded” adds a separate entry of the source. Where two headings read alike, the source gives them in different places.", "data": [{"smiles": "O=S([O-])O.[Na+]", "note": "[sodium bisulfite, Sodium bisulfite]", "values": [{"measurement": "stability against oxidative degradation and color formation", "setting": "[1]; [5]", "value": "improved stability against oxidative degradation and against color formation"}, {"measurement": "stability against oxidative degradation and color formation", "setting": "[1]; antioxidant at half IIG daily limit in raw tablet composition, 70 C sealed, 50 C loosely covered, 40 C/75% RH open, listed as Sodium bisulfite", "value": "best results"}]}, {"smiles": "CSCC[C@H](N)C(=O)O", "note": "[methionine, Methionine]", "values": [{"measurement": "stability against oxidative degradation and color formation", "setting": "[1]", "value": "improved stability against oxidative degradation and against color formation"}]}, {"smiles": "CC[C@@H](C(N)=O)N1CCCC1=O", "note": "[Levetiracetam, (S)-2-(2-oxopyrrolidin-1-yl)butanamide]", "values": [{"measurement": "degradation under stress", "setting": "[2]", "value": "substantial degradation"}, {"measurement": "solubility in acetonitrile", "setting": "[3]; acetonitrile", "value": 5.7, "unit": "g/100 mL"}, {"measurement": "solubility in chloroform", "setting": "[3]; chloroform", "value": 65.3, "unit": "g/100 mL"}, {"measurement": "solubility in ethanol", "setting": "[3]; ethanol", "value": 16.5, "unit": "g/100 mL"}, {"measurement": "solubility in methanol", "setting": "[3]; methanol", "value": 53.6, "unit": "g/100 mL"}, {"measurement": "solubility in n-hexane", "setting": "[3]; n-hexane", "value": "practically insoluble"}, {"measurement": "solubility in water", "setting": "[3]; water", "value": 104.0, "unit": "g/100 mL"}, {"measurement": "oxidative degradation of LEV in 3DP dosage form exposed to heat", "setting": "[4]", "value": "undergoes oxidative degradation to form oxo-levetiracetam"}]}, {"smiles": "Cc1c(C)c2c(c(C)c1O)CC[C@@](C)(CCC[C@H](C)CCC[C@H](C)CCCC(C)C)O2", "note": "[Vitamin E, Alpha-tocopherol]", "values": [{"measurement": "stability against oxidative degradation and color formation", "setting": "[1]", "value": "improved stability against oxidative degradation and against color formation"}]}, {"smiles": "O=S([O-])[O-].[Na+].[Na+]", "note": "[sodium sulfite, Sodium sulfite]", "values": [{"measurement": "stability against oxidative degradation and color formation", "setting": "[1]; [5]", "value": "improved stability against oxidative degradation and against color formation; also recorded: best results"}]}, {"smiles": "COc1ccc(O)c(C(C)(C)C)c1", "note": "[BHA, Butylated hydroxyanisole]", "values": [{"measurement": "stability against oxidative degradation and color formation", "setting": "[1]; [5]", "value": "improved stability against oxidative degradation and against color formation; also recorded: best results"}]}]}
